Data: US9580430B2, “9H-pyrimido[4,5-B]indoles and related analogs as BET bromodomain inhibitors” (THE REGENTS OF THE UNIVERSITY OF MICHIGAN, priority 2014, dated 2017)

Key:
VCaP tumor xenograft = system: VCaP tumor xenograft
Procedure: (§1) Four week-old male SCID C.B17 mice were procured from a breeding colony at University of Michigan. All procedures involving mice were approved by the University Committee on Use and Care of Animals (UCUCA) at the University of Michigan and conform to all regulatory standards. Mice were anesthetized using 2% Isoflurane (inhalation) and 2×10^6 VCaP prostate cancer cells suspended in 100 μl of PBS with 50% Matrigel (BD Biosciences) were implanted subcutaneously into the dorsal flank on both sides of the mice. […] Growth in tumor volume was recorded using digital calipers and tumor volumes were estimated using the formula (π/6) (L×W^2), where L=length of tumor and W=width. Loss of body weight during the course of the study was also monitored. At the end of the studies mice were sacrificed and tumors extracted and weighed. Additionally, femur bone marrow, liver and spleen were harvested to examine spontaneous metastasis by detecting human-Alu sequence. […] All procedures involving mice were approved by the University Committee on Use and Care of Animals (UCUCA) at the University of Michigan and conform to all regulatory standards.

[1] = system: VCaP prostate cancer cells; assay: Cell growth inhibition, VCaP prostate cancer cells (Cell-Titer GLO); format: cell-based; settings: for IC50: Homo sapiens, VCaP, 96 h incubation, read-out: IC50 (nM) VCaP Cell Line (CellTiter-Glo assay)
Procedure: For prostate cancer cell lines, VCaP prostate cancer cells were grown in DMEM with Glutamax (Gibco) supplemented with 10% FBS (Invitrogen) in 5% CO2 cell culture incubator. All cell lines were tested and found to be free of mycoplasma contamination. Cells were seeded in 96-well plates at 2,000-10,000 cells per well (optimum density for growth) in a total volume of […] media containing 10% FBS. Serially diluted compounds in […] media were added to the cells 12 h later. […] The values were normalized and IC50 was calculated using GraphPad Prism software.
Cells were seeded in 96-well plates at 2000-10,000 cells/well (optimum density for growth) in a total volume of 100 μl media containing 10% FBS. Serially diluted compounds in 100 μl media were added to the cells 12 h later. Following 96 h. incubation, cell viability was assessed by Cell-Titer GLO (Promega). The values were normalized and IC50 was calculated using GraphPad Prism software. […] After 12 days cells were fixed with methanol, stained with crystal violet and photographed. For colorimetric assays, the stained wells were treated with 500 μl 10% acetic acid and the absorbance was measured at 560 nm using a spectrophotometer.

AR = assay: ChIP-seq of AR in DHT-stimulated VCaP cells; format: cell-based; settings: DHT 10 nM plus JQ1 500 nM, MDV3100 10 μM or Bicalutamide 25 μM, FIG. 17
Procedure: (§2) The ChIP assays for BRD2, BRD3, BRD4, AR, RNA PolII, ERG and H3K27ac were performed using HighCell ChIP kit (Diagenode) according to manufacturer's protocol. […] Next, cells were cross-linked for 10 min. with 1% formaldehyde. […] Chromatin equivalent to 5×10^6 cells were used for ChIP using different antibodies. ChIP DNA was isolated (IPure Kit, Diagenode) from samples by incubation with the antibody at 4° C. overnight followed by wash and reversal of cross-linking. The ChIP-seq sample preparation for sequencing was performed according to the manufacturer's instructions (Illumina). […] A single A-base was added to fragment ends by Klenow fragment (3′ to 5′ exo minus; NEB) followed by ligation of Illumina adaptors (Quick ligase, NEB). The adaptor-modified DNA fragments were enriched by PCR using the Illumina Barcode primers and Phusion DNA polymerase (NEB). PCR products were size selected using 3% NuSieve agarose gels (Lonza) followed by gel extraction using QIAEX II reagents (QIAGEN). Libraries were quantified with the Bioanalyzer 2100 (Agilent) and sequenced on the Illumina HiSeq 2000 Sequencer (100 nucleotide read length).
For enrichment plots shown in FIGS. 17, 19 and 20, identified peaks for each sample are centered by peak summit and average coverage per million was counted within 1500 bp relative to the peak center.

VCaP xenograft model = assay: Spontaneous metastasis in the VCaP xenograft model (human Alu qPCR); format: in vivo, mice; settings: femur, liver and spleen; JQ1 50 mg/kg, MDV3100 10 mg/kg
Procedure: as §1

BRD2/3/4 = assay: ChIP-seq of BRD2/3/4 in VCaP cells; format: cell-based; settings: 500 nM, 12 h
Procedure: as §2

recombinant BRD4 BD1 = target: T1, recombinant BRD4 BD1 (Homo sapiens, UniProt O60885); assay: Competitive fluorescence-polarization (FP) binding assay, BRD4 BD1; settings: competitive FP assay; protein 10 nM, probe […]; read-out: IC50 (nM) BRD4 BD1; further: probe 1.5 nM
T1 construct: for recombinant BRD4 BD1 and BRD4 BD2 proteins
Summary of the method: (§3)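 Buffer: 100 mM potassium phosphate, pH 6.5, 0.01% Triton X-100; compounds added in buffer with 40% ethylene glycol to preformed complex of fluorescent probe with BRD4 BD1 (10 nM final) or BD2 (6 nM final). After 30 min at room temperature, polarization read. IC50 from nonlinear fits of competition curves, with Ki.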

recombinant BRD4 BD2 = target: T2, recombinant BRD4 BD2 (Homo sapiens, UniProt O60885); assay: Competitive fluorescence-polarization (FP) binding assay, BRD4 BD2; settings: competitive FP assay; protein 6 nM, probe […]; read-out: IC50 (nM) BRD4 BD2; further: probe 1.5 nM
T2 construct: for recombinant BRD4 BD1 and BRD4 BD2 proteins
Summary of the method: as §3

MDA-MB-436 = assay: Cell growth inhibition, MDA-MB-436 breast cancer cells (WST-8); format: cell-based; settings: Homo sapiens, MDA-MB-436, 96 h; 4 days; read-out: IC50 (nM) MDA-MB-436 Cell Line (WST assay)
Summary of the method: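 IC50 was computed from WST-8-based cell counting in MDA-MB-436 cells, with absorbance read at 450 nm.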

MOLM-13 = assay: Cell growth inhibition, MOLM-13 leukemia cells (CellTiter-Glo); format: cell-based; settings: Homo sapiens, MOLM-13, 96 h; 4 days; read-out: IC50 (nM) MOLM-13 Cell Line (CellTiter-Glo assay)
Summary of the method: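 Luminescent ATP-based viability (CellTiter-Glo, 10-20 min at room temperature) in compound-treated MOLM-13 cells; the half-maximal inhibitory concentration was calculated from the readout.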

IC50 (recombinant BRD4 BD1) | IC50 [1] | IC50 (recombinant BRD4 BD2) | IC50 (MDA-MB-436) | IC50 (MOLM-13) | Structure (SMILES) | tumor volume/weight (VCaP tumor xenograft; VCaP tumor-bearing mice, JQ1 50 mg/kg, MDV3100 10 mg/kg, 5 days/week, FIGS. 23-25) | tolerability (VCaP tumor xenograft; mouse, in vivo) | VCaP cell viability in vitro ([1]; 8 days, FIG. 22) | recruitment of AR to target loci (AR) | spontaneous metastasis (VCaP xenograft model) | recruitment of BRD2/3/4 to the chromatin (BRD2/3/4)
– | – | – | – | – | CNC(=O)c1ccc(N2C(=S)N(c3ccc(C#N)c(C(F)(F)F)c3)C(=O)C2(C)C)cc1F [MDV3100, enzalutamide] | less pronounced effect | well tolerated | Marginal cell death | markedly attenuated | evidence of metastases in femur and liver | –
– | – | – | – | – | CCNC(=O)C[C@@H]1N=C(c2ccc(Cl)cc2)c2cc(OC)ccc2-n2c(C)nnc21 [I-BET762] | – | – | – | – | – | reduction in the recruitment
2.1 nM | 53.8 nM | 0.7 nM | 14.5 nM | 3 nM | CCn1nc(C2CC2)cc1Nc1nc(C)nc2[nH]c3cc(-c4c(C)noc4C)c(OC)cc3c12 [Cpd. No. 144, N-(3-Cyclopropyl-1-ethyl-1H-pyrazol-5-yl)-7-(3,5-dimethylisoxazol-4-yl)-6-methoxy-2-methyl-9H-pyrimido[4,5-b]indol-4-amine] | – | – | – | – | – | –
4.9 nM | 64.7 nM | 12.3 nM | 71 nM | 17 nM | COc1cc2c(cc1-c1c(C)noc1C)[nH]c1nc(C)nc(Nc3c(C)c(C)nn3C(C)(C)C)c12 [Cpd. No. 185, N-(1-(tert-butyl)-3,4-dimethyl-1H-pyrazol-5-yl)-7-(3,5-dimethylisoxazol-4-yl)-6-methoxy-2-methyl-9H-pyrimido[4,5-b]indol-4-amine] | – | – | – | – | – | –
